Key:
[1] = biological target: T1, kinase domain protein of RC kinase (Homo sapiens, UniProt Q56UN5); assay: Enzymatic assay for kinase inhibitory activity (Crebtide substrate, LANCE read-out); assay type: biochemical; conditions: compound at 1 μM
T1 sequence (Q56UN5 1061-1324 limits assumed): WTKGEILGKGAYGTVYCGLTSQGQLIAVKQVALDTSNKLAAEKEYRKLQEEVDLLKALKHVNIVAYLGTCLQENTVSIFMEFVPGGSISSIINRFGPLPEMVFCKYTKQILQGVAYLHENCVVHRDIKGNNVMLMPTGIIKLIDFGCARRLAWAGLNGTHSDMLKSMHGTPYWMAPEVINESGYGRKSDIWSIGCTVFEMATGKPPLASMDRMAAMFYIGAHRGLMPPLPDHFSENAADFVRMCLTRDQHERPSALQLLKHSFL
Summary of the method: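 Compound tested at 1 μM final in HEPES/MgCl2/DTT buffer with 50 nM Crebtide and kinase domain at 1 μM ATP; full-length kinase at 3 μM ATP after 45 min preincubation. Reaction 45 min at room temperature, stopped with EDTA, read by LANCE TR-FRET (665/615 nm). Activity binned as % inhibition at 1 μM.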

melting point | inhibition at 1 µM [1] | SMILES
267 to 270 °C | 5 to 20% | COc1ccc(/C=N/c2[nH]nc(Nc3ccccc3Cl)c2C(N)=O)c(O)c1 [Compound B119]
288 to 292 °C | ≥ 50% | COc1ccc(/C=N/c2[nH]nc(Nc3ccccc3Cl)c2C(N)=O)cc1 [Compound B120]
306 to 309 °C | ≥ 50% | NC(=O)c1c(Nc2cccnc2)n[nH]c1/N=C/c1ccc(O)cc1 [Compound B121, 5-((4-hydroxybenzylidene)amino)-3-(pyridin-3-ylamino)-1H-pyrazole-4-carboxamide]
295 to 298 °C | 20 to 50% | COc1ccc(/C=N/c2[nH]nc(Nc3cccc(Cl)c3)c2C(N)=O)cc1 [Compound B122]

— patent publication US9365556B2, “3,5-diaminopyrazole kinase inhibitors” (Axikin Pharmaceuticals, Inc., priority 2012, dated 2016)
